Source: patent publication US9120787B2, “HIV replication inhibitors” (priority 2011, dated 2015)

What was measured:
[1] = Cytotoxicity by MTS staining in uninfected MAGI-CCR5 cells; type: cell-based; conditions: human, read-out: TC50
Protocol: The anti-viral activity of dihydropyrimidines was shown by inhibition of virus replication in MAGI-CCR5 cells. MAGI-CCR5 cells are derived from HeLa-CD4-LTR-β-galactosidase cells. The cells have been engineered to express high levels of CD4 and CCR5 and contain one copy of the HIV-1 LTR promoter driving expression of the β-galactosidase gene upon HIV-1 Tat transactivation. On the day preceding the assay, the cells were plated at 1.0×10^4 cells per well and maintained at 37° C. and 5% CO2 in a humidified incubator. Total cell count and viability was visually assessed using a hemacytometer and trypan blue exclusion. Compounds were evaluated at six concentrations (triplicate wells/concentration). On the day of assay setup, compound dilutions were prepared at two-times (2×) the final concentrations. Media was decanted and wells were replenished with 50 μl of 2× compounds, followed by the addition of 50 μl of diluted virus. Identical uninfected assays were prepared for parallel cytotoxicity testing.

HIV-1Ba-L = test: Inhibition of virus replication in MAGI-CCR5 cells (β-galactosidase reporter); type: cell-based; conditions: HIV-1Ba-L in MAGI-CCR5 cells; for IC50: Human immunodeficiency virus 1, 48 hours, β-galactosidase reporter expression, read-out: IC50
Protocol: The anti-viral activity of dihydropyrimidines was shown by inhibition of virus replication in MAGI-CCR5 cells. MAGI-CCR5 cells are derived from HeLa-CD4-LTR-β-galactosidase cells. The cells have been engineered to express high levels of CD4 and CCR5 and contain one copy of the HIV-1 LTR promoter driving expression of the β-galactosidase gene upon HIV-1 Tat transactivation. On the day preceding the assay, the cells were plated at 1.0×10^4 cells per well and maintained at 37° C. and 5% CO2 in a humidified incubator. Total cell count and viability was visually assessed using a hemacytometer and trypan blue exclusion.
Compounds were evaluated at six concentrations (triplicate wells/concentration). On the day of assay setup, compound dilutions were prepared at two-times (2×) the final concentrations. Media was decanted and wells were replenished with 50 μl of 2× compounds, followed by the addition of 50 μl of diluted virus. Identical uninfected assays were prepared for parallel cytotoxicity testing.
Evaluation of Dihydropyrimidines vs. HIV-1Ba-L in MAGI-CCR5 Cells

Structure (SMILES) | CC50 at 48 h [1] [µM] | TI (TC50/IC50) (HIV-1Ba-L) | IC50 (HIV-1Ba-L) [µM]
CC1=C(c2nc(-c3ccc(C#N)cc3)cs2)C(c2ccc(O)c(O)c2)NC(=O)N1 (stereo not drawn) [Example 79] | ≥ 100 | A (A = TI (TC50/IC50) ≧ 100.0) | < 1
CC1=C(c2nc(-c3ccc(C#N)cc3)cs2)C(c2cc(C(F)(F)F)cc(C(F)(F)F)c2)NC(=O)N1 (stereo not drawn) [Example 77] | ≥ 100 | D (D < 10.0) | > 100
CC1=C(c2nc(-c3ccc(C#N)cc3)cs2)C(c2cccc(Cl)c2)NC(=O)N1 (stereo not drawn) [Example 51] | ≥ 100 | C (C < 50.0 to 10.0) | 5 to 100
CC1=C(c2nc(-c3ccc(C#N)cc3)cs2)C(c2ccc(OCc3ccccc3)cc2)NC(=O)N1 (stereo not drawn) [Example 52] | ≥ 100 | C (C < 50.0 to 10.0) | 1 to 5
CC1=C(c2nc(-c3ccc(C#N)cc3)cs2)C(c2cc(O)ccc2O)NC(=O)N1 (stereo not drawn) [Example 78] | ≥ 100 | D (D < 10.0) | 5 to 100
COc1cccc(C2NC(=O)NC(C)=C2c2nc(-c3ccc(C#N)cc3)cs2)c1 (stereo not drawn) [Example 65] | ≥ 100 | C (C < 50.0 to 10.0) | 1 to 5
CC1=C(c2nc(-c3ccc(C#N)cc3)cs2)C(c2ccc([N+](=O)[O-])cc2)NC(=O)N1 (stereo not drawn) [Example 55] | ≥ 100 | C (C < 50.0 to 10.0) | 5 to 100
CC1=C(c2nc(-c3ccc(C#N)cc3)cs2)C(c2cncc(F)c2)NC(=O)N1 (stereo not drawn) [Example 20] | ≥ 100 | A (A = TI (TC50/IC50) ≧ 100.0) | < 1
CC1=C(c2nc(-c3ccc(C#N)cc3)cs2)C(c2cc(F)cc(F)c2)NC(=O)N1 (stereo not drawn) [Example 53] | ≥ 100 | C (C < 50.0 to 10.0) | 1 to 5
CC1=C(c2nc(-c3ccc(C(F)(F)F)cc3)cs2)C(c2cccc(O)c2)NC(=O)N1 (stereo not drawn) [Example 75] | < 50 | D (D < 10.0) | 5 to 100
CC1=C(c2nc(-c3ccc(C#N)cc3)cs2)C(c2ccc3ccccc3n2)NC(=O)N1 (stereo not drawn) [Example 6] | ≥ 100 | C (C < 50.0 to 10.0) | 1 to 5
CC1=C(c2nc(-c3ccc(C#N)cc3)cs2)C(c2cc(=O)[nH]c(=O)[nH]2)NC(=O)N1 (stereo not drawn) [Example 22] | ≥ 100 | D (D < 10.0) | > 100
CC1=C(c2nc(-c3ccc(C#N)cc3)cs2)C(c2ccc(OC(F)(F)F)cc2)NC(=O)N1 (stereo not drawn) [Example 63] | ≥ 100 | D (D < 10.0) | 5 to 100
CC1=C(c2nc(-c3ccc(C#N)cc3)cs2)C(c2ccc(F)c(C#N)c2)NC(=O)N1 (stereo not drawn) [Example 56] | ≥ 100 | C (C < 50.0 to 10.0) | 5 to 100
CC1=C(c2nc(-c3ccc(C#N)cc3)cs2)C(c2ccc(Cl)c(OC(F)(F)F)c2)NC(=O)N1 (stereo not drawn) [Example 61] | ≥ 100 | D (D < 10.0) | 5 to 100
CC1=C(c2nc(-c3cccs3)cs2)C(c2cccc(O)c2)NC(=O)N1 (stereo not drawn) [Example 37] | ≥ 100 | D (D < 10.0) | 5 to 100
CC1=C(c2nc(-c3ccc(C#N)cc3)cs2)C(c2ccc(-c3ccccc3)cc2)NC(=O)N1 (stereo not drawn) [Example 58] | ≥ 100 | C (C < 50.0 to 10.0) | 1 to 5
CC1=C(c2nc(-c3ccc(C#N)cc3)cs2)C(Cc2ccccc2)NC(=O)N1 (stereo not drawn) [Example 88] | ≥ 100 | C (C < 50.0 to 10.0) | 1 to 5
CC1=C(c2nc(-c3ccc(C#N)cc3C)cs2)C(c2ccc(Br)nc2)NC(=O)N1 (stereo not drawn) [Example 84] | < 50 | B (B < 100.0-50.0) | < 1
